Experimental data from PubChem BioAssay (NCI).
Where “and” joins values, the source holds several entries; their conditions need not be identical. Identical values can stand only once.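 96-well plates; 48 h exposure; 5 concentrations. Endpoints by linear interpolation between flanking doses. Not reached: highest tested concentration assigned. GI50 is the concentration that inhibits growth by half. Definition used: TGI = concentration required for complete inhibition of growth.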

Key:
Assay in all cases: NCI tumour cell line growth inhibition, 48 h
T-47D breast = test system: T-47D breast
MCF7 breast = test system: MCF7 breast
HS 578T breast = test system: HS 578T breast
A549 NSCLC = test system: A549 NSCLC
XF 498 CNS = test system: XF 498 CNS
KM20L2 colon = test system: KM20L2 colon
DMS 273 small cell lung = test system: DMS 273 small cell lung
DMS 114 small cell lung = test system: DMS 114 small cell lung
M19-MEL melanoma = test system: M19-MEL melanoma

## O=C1c2cccnc2-c2nc(-c3ccncc3)cc3c2c1nc1ccccc13
T-47D breast
  GI50: 44.9 µM
  TGI: > 100 µM
MCF7 breast
  GI50: 11.4 µM
  TGI: 23.5 µM
HS 578T breast
  GI50: 10.6 µM
  TGI: 23.1 µM

## CC1CCCc2c1nn(C(=O)/C=C(\N)c1ccccc1)c2N (stereo unspecified)
T-47D breast
  GI50: 3.71 µM
  TGI: 95.1 µM
MCF7 breast
  GI50: 7.26 µM
  TGI: > 100 µM
A549 NSCLC
  GI50: 9.06 µM
  TGI: > 100 µM
HS 578T breast
  GI50: 22.4 µM
  TGI: > 100 µM

## O=S(=O)(CCOCc1ccc(-c2ccc3ncnc(Nc4ccc(OCc5cccc(F)c5)c(Cl)c4)c3c2)o1)c1ccccc1
T-47D breast
  GI50: > 6.73 µM
  TGI: > 25 µM
MCF7 breast
  GI50: > 25 µM
  TGI: > 25 µM
A549 NSCLC
  GI50: > 25 µM
  TGI: > 25 µM
HS 578T breast
  GI50: > 11 µM
  TGI: > 25 µM

## CCOC(=O)c1ccc(N[C@@H]2c3cc4c(cc3C(C3=CC(=O)C(=O)C(OC)=C3)[C@H]3C(=O)OCC32)OCO4)cc1 (stereo partly specified)
A549 NSCLC
  TGI: 5.67 µM
XF 498 CNS
  TGI: 9.38 µM
KM20L2 colon
  TGI: 32.1 µM
DMS 273 small cell lung
  TGI: 13.5 µM
DMS 114 small cell lung
  TGI: 6.89 µM
M19-MEL melanoma
  TGI: 36.4 µM

## O=C1C=C(O)c2[nH]c(=O)ccc2C1=O
A549 NSCLC
  TGI: > 100 µM
XF 498 CNS
  TGI: > 100 µM
KM20L2 colon
  TGI: > 100 µM
DMS 273 small cell lung
  TGI: > 100 µM
M19-MEL melanoma
  TGI: > 100 µM

## O=C(/C=C/c1ccccc1)CC(c1ccccc1)N1CCOCC1 (stereo unspecified)
T-47D breast
  GI50: 4.26 µM
  TGI: 23.5 µM
MCF7 breast
  GI50: 4.68 µM
  TGI: 80.3 µM
A549 NSCLC
  GI50: 11.7 µM
  TGI: 29 µM
HS 578T breast
  GI50: 4.25 µM
  TGI: 55 µM

## Cc1ccc2c(c1)Sc1ccc(N=NN(C)C)cc1N2C
T-47D breast
  TGI: 85.9 µM
MCF7 breast
  TGI: > 100 µM
A549 NSCLC
  TGI: > 100 µM
HS 578T breast
  TGI: > 100 µM

## Cl[Si]1(Cl)Oc2ccccc2O[Si](Cl)(Cl)Oc2ccccc2O1
A549 NSCLC
  TGI: > 100 µM
XF 498 CNS
  TGI: 30.3 µM
KM20L2 colon
  TGI: > 100 µM
DMS 273 small cell lung
  TGI: 31.3 µM
DMS 114 small cell lung
  TGI: 6.03 µM
M19-MEL melanoma
  TGI: 25.3 µM

## CCN(CC)CCNC(=O)c1c(C)[nH]c(/C=C2\C(=O)Nc3ccc(F)cc32)c1C
T-47D breast
  GI50: > 10 µM and > 20 µM and 15.9 µM
  TGI: > 10 µM and > 20 µM and 35.3 µM
MCF7 breast
  GI50: 1.93 µM and 2.23 µM and 2.05 µM
  TGI: > 10 µM and 4.88 µM and 11.9 µM
A549 NSCLC
  GI50: 5.52 µM and 2.97 µM and 3.85 µM
  TGI: > 10 µM and 6.44 µM and 17.6 µM
HS 578T breast
  GI50: 3.01 µM and 3.57 µM and 2.4 µM
  TGI: > 10 µM and 17.7 µM and 15.3 µM

## COC(=O)/C(C#N)=C1\CCC(C(=O)OC)N1C (stereo unspecified)
A549 NSCLC
  TGI: > 100 µM
XF 498 CNS
  TGI: > 100 µM
KM20L2 colon
  TGI: > 100 µM
DMS 273 small cell lung
  TGI: > 100 µM
DMS 114 small cell lung
  TGI: > 100 µM
M19-MEL melanoma
  TGI: > 100 µM

## Cc1ncc(C(=O)Nc2ccc(CN3CCN(C)CC3)c(C(F)(F)F)c2)cc1C#Cc1cnc(NC2CC2)c2ncccc12
T-47D breast
  GI50: 5.68 µM
  TGI: 13.5 µM
MCF7 breast
  GI50: 0.605 µM
  TGI: 1.18 µM
A549 NSCLC
  GI50: 0.682 µM
  TGI: 1.33 µM
HS 578T breast
  GI50: 1.19 µM
  TGI: 4.44 µM

## O=S1(=O)NCCCN1CCNc1nccc(-c2c(-c3cccc(O)c3)nc3sccn23)n1
T-47D breast
  GI50: 23.3 µM
  TGI: > 100 µM
MCF7 breast
  GI50: 29.5 µM
  TGI: > 100 µM
A549 NSCLC
  GI50: 42.5 µM
  TGI: > 100 µM
HS 578T breast
  GI50: 10.8 µM
  TGI: > 81.4 µM

## NC(=O)C1(N2CCCCC2)CCN(CCCC(=O)c2ccc(F)cc2)CC1
T-47D breast
  GI50: > 100 µM
  TGI: > 100 µM
MCF7 breast
  GI50: 0.108 µM
  TGI: > 100 µM
A549 NSCLC
  GI50: 10.4 µM
  TGI: > 100 µM
HS 578T breast
  GI50: 2.37 µM
  TGI: > 100 µM

## CCOC(=O)/C(=C/c1cccc(OC)c1)N(CC)CC
A549 NSCLC
  TGI: > 100 µM
XF 498 CNS
  TGI: > 100 µM
KM20L2 colon
  TGI: > 100 µM
DMS 273 small cell lung
  TGI: > 100 µM
DMS 114 small cell lung
  TGI: > 100 µM
M19-MEL melanoma
  TGI: > 100 µM

## OC(c1ccc(Br)cc1)(c1cccs1)C1CC1 (stereo unspecified)
T-47D breast
  TGI: 88.5 µM
MCF7 breast
  TGI: 72.6 µM
A549 NSCLC
  TGI: > 100 µM
HS 578T breast
  TGI: 49.5 µM

## COc1ccc(CC(C)C(C)Cc2ccc(OC)c(OC)c2)cc1OC (stereo unspecified)
T-47D breast
  GI50: > 1400 µM
  TGI: > 1400 µM
MCF7 breast
  GI50: 650 µM
  TGI: > 1400 µM
A549 NSCLC
  GI50: 600 µM
  TGI: > 1400 µM
HS 578T breast
  GI50: > 1400 µM
  TGI: > 1400 µM

## CNC(=O)c1cc2c(Oc3ccc(NC(=O)C4(C(=O)Nc5ccc(F)cc5)CC4)cc3)ccnc2cc1OC
T-47D breast
  GI50: 2.71 µM
  TGI: 16.3 µM
MCF7 breast
  GI50: 2.55 µM
  TGI: > 100 µM
A549 NSCLC
  GI50: 2.82 µM
  TGI: 16.9 µM
HS 578T breast
  GI50: 1.11 µM
  TGI: 4.69 µM

## COc1ccc(/C=C2/CCc3cc4ccc(OC)cc4[o+]c32)c(O)c1
T-47D breast
  GI50: 3.04 µM
  TGI: 22.1 µM
MCF7 breast
  GI50: 4.31 µM
  TGI: 22 µM
A549 NSCLC
  GI50: 18.5 µM
  TGI: 41.6 µM
HS 578T breast
  GI50: 4.28 µM
  TGI: 34.5 µM

## COc1cc2cnc3c4ccccc4ccc3c2cc1OC
A549 NSCLC
  TGI: > 100 µM
XF 498 CNS
  TGI: > 100 µM
KM20L2 colon
  TGI: > 100 µM
DMS 114 small cell lung
  TGI: > 100 µM
M19-MEL melanoma
  TGI: > 100 µM

## C=CCSc1nc2ccccc2c(=O)n1Cc1ccco1
T-47D breast
  TGI: > 100 µM
MCF7 breast
  TGI: > 100 µM
A549 NSCLC
  TGI: > 100 µM
HS 578T breast
  TGI: > 100 µM

## O=C1C(Cl)=C(Nc2ccccc2)C(=O)c2ccccc21
MCF7 breast
  GI50: 1.5 µM
  TGI: 3.53 µM
A549 NSCLC
  GI50: 15.5 µM
  TGI: 42.2 µM
HS 578T breast
  GI50: 3.05 µM
  TGI: 30.5 µM

## c1ccc2nc3c(cc4ccccn43)nc2c1
T-47D breast
  GI50: 88.1 µM
  TGI: > 100 µM
MCF7 breast
  GI50: > 100 µM
  TGI: > 100 µM
A549 NSCLC
  GI50: 77.4 µM
  TGI: > 100 µM
HS 578T breast
  GI50: 61.7 µM
  TGI: > 100 µM

## CCN(CC)CCNC(=O)c1cn2ncnc(Oc3ccc(NC(=O)Nc4ccc(Cl)c(C(F)(F)F)c4)c(F)c3)c2c1C
T-47D breast
  GI50: 1.83 µM
  TGI: 4 µM
MCF7 breast
  GI50: 1.4 µM
  TGI: 3.15 µM
A549 NSCLC
  GI50: 1.77 µM
  TGI: 3.44 µM
HS 578T breast
  GI50: 1.52 µM
  TGI: 4.29 µM

## c1ccc(Cn2cnc3ccc(-c4nc(-c5ccc6c(c5)ncn6C5CCCCC5)cn5ccnc45)cc32)cc1
MCF7 breast
  GI50: 2.72 µM
  TGI: > 100 µM
A549 NSCLC
  GI50: 2.33 µM
  TGI: 4.97 µM
HS 578T breast
  GI50: 2.71 µM
  TGI: > 100 µM

## CCC1=C[C@@H]2CN(C1)Cc1c([nH]c3ccccc13)[C@@](C(=O)OC)(c1cc3c(cc1OC)N(C)[C@H]1[C@@](O)(C(=O)OC)[C@H](OC(C)=O)[C@]4(CC)[C@@H]5C[C@@H]5CN5CC[C@]31[C@@H]54)C2
T-47D breast
  TGI: 11.5 µM and 23.9 µM
MCF7 breast
  GI50: < 0.005 µM
  TGI: 5.44 µM and 12.6 µM
A549 NSCLC
  GI50: < 0.005 µM
  TGI: 5.95 µM and 12.2 µM

## O=C(NC12CC3CC(CC(C3)C1)C2)C(=O)c1c[nH]c2ccc(Cl)cc12
A549 NSCLC
  TGI: > 100 µM
XF 498 CNS
  TGI: 43 µM
KM20L2 colon
  TGI: > 100 µM
DMS 273 small cell lung
  TGI: > 100 µM
DMS 114 small cell lung
  TGI: > 100 µM
M19-MEL melanoma
  TGI: > 100 µM
